Results on two compounds are retold here after paper PMC4769319, “Cohesin Releases DNA through Asymmetric ATPase-Driven Ring Opening” (Molecular Cell, 2016).

The target of the experiment is T1, Smc1/Smc3 heterodimer with Scc1-C (cohesin) (Saccharomyces cerevisiae, UniProt P32908+P47037, P32908:K39I, form not given).
T1 construct: N-terminal tags; Sf9 insect cells; fluorescently labelled for MST; with Sister chromatid cohesion protein 1
T1 sequence (P32908 1-1225 K39I): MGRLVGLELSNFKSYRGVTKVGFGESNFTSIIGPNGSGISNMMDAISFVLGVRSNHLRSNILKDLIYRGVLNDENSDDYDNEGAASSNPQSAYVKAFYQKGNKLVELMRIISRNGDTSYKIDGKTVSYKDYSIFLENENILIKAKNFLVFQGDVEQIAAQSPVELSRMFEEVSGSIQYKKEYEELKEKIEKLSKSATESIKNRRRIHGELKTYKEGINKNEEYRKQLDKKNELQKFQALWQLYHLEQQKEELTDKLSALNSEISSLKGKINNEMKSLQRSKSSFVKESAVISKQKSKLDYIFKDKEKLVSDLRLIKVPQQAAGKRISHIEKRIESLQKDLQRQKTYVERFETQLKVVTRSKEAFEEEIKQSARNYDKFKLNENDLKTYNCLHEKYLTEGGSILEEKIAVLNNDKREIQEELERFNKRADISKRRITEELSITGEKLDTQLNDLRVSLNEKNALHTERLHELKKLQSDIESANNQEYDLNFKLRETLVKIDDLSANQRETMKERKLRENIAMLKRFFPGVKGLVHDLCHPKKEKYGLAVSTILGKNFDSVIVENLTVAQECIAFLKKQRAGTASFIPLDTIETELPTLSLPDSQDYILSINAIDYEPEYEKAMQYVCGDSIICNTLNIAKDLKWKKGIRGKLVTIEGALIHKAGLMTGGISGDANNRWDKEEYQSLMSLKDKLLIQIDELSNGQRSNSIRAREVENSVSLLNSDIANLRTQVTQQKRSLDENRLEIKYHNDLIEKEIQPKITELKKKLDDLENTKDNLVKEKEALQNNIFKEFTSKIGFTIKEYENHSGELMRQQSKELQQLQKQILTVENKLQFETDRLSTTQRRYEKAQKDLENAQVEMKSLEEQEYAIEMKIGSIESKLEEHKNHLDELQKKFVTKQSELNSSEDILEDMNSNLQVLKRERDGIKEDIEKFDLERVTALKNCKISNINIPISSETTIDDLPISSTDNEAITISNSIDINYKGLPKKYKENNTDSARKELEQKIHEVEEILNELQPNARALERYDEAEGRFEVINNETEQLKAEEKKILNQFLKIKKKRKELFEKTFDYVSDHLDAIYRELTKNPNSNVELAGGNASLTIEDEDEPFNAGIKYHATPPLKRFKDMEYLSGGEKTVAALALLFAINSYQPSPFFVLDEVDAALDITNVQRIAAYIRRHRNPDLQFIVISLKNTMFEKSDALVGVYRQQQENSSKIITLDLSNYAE
T1 sequence (P47037 1-1230): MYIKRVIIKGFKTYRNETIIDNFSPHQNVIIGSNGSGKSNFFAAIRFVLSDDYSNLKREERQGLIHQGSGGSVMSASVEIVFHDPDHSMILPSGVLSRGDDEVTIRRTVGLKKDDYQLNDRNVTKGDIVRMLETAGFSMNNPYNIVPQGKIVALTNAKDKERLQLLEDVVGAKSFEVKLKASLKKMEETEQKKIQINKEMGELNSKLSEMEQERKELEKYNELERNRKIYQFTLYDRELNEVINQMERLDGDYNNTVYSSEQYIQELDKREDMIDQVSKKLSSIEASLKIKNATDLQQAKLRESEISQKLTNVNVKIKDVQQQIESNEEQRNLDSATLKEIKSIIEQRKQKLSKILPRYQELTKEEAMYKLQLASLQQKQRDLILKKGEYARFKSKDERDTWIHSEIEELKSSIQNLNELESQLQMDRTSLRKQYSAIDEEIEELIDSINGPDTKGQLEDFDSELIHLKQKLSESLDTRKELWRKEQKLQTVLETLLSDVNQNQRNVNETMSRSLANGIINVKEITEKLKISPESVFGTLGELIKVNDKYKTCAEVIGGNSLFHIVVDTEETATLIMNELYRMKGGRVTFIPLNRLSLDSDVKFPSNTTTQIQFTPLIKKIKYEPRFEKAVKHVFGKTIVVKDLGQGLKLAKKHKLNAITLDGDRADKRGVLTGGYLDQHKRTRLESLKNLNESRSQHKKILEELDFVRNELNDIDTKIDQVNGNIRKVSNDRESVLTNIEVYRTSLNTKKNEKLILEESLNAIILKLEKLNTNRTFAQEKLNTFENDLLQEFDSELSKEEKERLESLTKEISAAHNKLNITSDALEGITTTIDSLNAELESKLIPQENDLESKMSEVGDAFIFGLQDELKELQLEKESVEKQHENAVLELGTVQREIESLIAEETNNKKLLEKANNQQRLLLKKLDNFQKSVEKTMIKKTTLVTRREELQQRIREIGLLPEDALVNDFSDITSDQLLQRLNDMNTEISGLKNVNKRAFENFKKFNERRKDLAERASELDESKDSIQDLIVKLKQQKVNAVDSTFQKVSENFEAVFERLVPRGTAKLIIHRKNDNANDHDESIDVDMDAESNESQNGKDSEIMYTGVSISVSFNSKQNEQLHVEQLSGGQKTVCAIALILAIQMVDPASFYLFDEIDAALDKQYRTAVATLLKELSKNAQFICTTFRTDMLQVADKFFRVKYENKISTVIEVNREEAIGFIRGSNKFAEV
T1 sequence (Q12158 1-566 partner): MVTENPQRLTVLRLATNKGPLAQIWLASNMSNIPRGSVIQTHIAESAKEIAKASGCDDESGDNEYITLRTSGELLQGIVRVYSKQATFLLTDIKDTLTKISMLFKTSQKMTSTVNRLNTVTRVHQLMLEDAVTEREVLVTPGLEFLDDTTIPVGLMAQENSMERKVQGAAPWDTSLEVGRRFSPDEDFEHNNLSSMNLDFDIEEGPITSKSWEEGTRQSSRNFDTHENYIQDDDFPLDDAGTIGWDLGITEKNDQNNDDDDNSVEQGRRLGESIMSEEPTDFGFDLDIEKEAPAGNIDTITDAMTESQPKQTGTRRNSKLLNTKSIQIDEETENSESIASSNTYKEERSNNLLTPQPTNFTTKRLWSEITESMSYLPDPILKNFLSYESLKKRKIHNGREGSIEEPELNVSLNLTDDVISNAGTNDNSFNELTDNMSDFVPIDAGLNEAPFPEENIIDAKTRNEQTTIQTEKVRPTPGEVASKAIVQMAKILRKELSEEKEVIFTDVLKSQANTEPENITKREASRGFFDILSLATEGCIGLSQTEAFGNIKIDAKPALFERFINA
The experiment in a line: microscale thermophoresis. Particulars: fluorescently labelled protein; Smc1 co-purified with Scc1-C, plus Smc3; binding abrogated.

Take `Nc1ncnc2c1ncn2[C@@H]1O[C@H](COP(=O)(O)OP(=O)(O)OP(=O)(O)O)[C@@H](O)[C@H]1O` [ATP]: the microscale thermophoresis result is “each of the Walker A mutations efficiently abrogated binding to ATP and ADP”.

Take `Nc1ncnc2c1ncn2[C@@H]1O[C@H](COP(=O)(O)OP(=O)(O)O)[C@@H](O)[C@H]1O` [ADP]: the microscale thermophoresis entry is “each of the Walker A mutations efficiently abrogated binding to ATP and ADP”.
